From patent US9499553B2 (CHUGAI SEIYAKU KABUSHIKI KAISHA, priority 2013, dated 2016) come the findings set out here.

Common to all, as to assay type: cell-based
One assay has as its target T1, human PiT-2 (Homo sapiens, UniProt Q08357).
T1 construct: expressed in transfected cells; host or cells: CHO cells
T1 sequence (Q08357 1-652): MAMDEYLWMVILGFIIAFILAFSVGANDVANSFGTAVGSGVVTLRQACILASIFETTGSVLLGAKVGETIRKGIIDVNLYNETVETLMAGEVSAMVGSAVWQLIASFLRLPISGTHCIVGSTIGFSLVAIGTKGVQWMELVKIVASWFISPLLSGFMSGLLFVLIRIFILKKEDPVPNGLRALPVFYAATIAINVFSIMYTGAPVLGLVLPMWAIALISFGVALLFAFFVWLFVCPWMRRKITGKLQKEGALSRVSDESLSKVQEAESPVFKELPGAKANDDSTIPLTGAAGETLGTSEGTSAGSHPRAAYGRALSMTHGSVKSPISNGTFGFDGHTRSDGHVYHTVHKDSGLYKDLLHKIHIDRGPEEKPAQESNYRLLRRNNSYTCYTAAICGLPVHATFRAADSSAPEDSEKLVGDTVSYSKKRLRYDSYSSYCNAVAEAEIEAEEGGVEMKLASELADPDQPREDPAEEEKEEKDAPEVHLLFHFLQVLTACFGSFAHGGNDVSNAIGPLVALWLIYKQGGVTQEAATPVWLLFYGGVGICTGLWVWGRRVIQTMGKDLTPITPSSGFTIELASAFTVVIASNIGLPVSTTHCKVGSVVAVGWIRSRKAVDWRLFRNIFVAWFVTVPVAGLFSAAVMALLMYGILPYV
Put plainly: Inhibitory effect on 33PO4 uptake into human PiT-2-expressing CHO cells. The conditions noted are these: pH 6.5, read-out: IC50 against 33PO4 uptake into human PiT-2-expressing cells. On the procedure:
Test Example 4: Inhibitory Effect on ^33PO4 Uptake into Human PiT-2-Expressing Cell
(§1) CHO cells were transfected with human PiT-2 expression plasmids or empty vectors to prepare human PiT-2-expressing cells and empty vector-expressing cells. The human PiT-2-expressing cells or the empty vector-expressing cells were inoculated to a 96-well plate and incubated overnight in a CO2 incubator. […] After a given time, a 1/20 volume of buffer A containing ^33PO4 was added thereto and reacted at room temperature. After washing with ice-cold buffer A, a liquid scintillator was added to each reaction mixture, and the amount of ^33PO4 uptake was measured using TopCount. The rate of inhibition was determined according to the following expression: Rate (%) of inhibition=(1−(Amount of ^33PO4 uptake in the compound-supplemented well containing the human PiT-2-expressing cells−Amount of ^33PO4 uptake in the compound-supplemented well containing the empty vector-expressing cells)/(Amount of ^33PO4 uptake in the DMSO-supplemented well containing the human PiT-2-expressing cells −Amount of ^33PO4 uptake in the DMSO-supplemented well containing the empty vector-expressing cells))×100

Another assay deals with T2, human PiT-1 (Homo sapiens, UniProt Q8WUM9).
T2 construct: expressed in transfected cells; host or cells: CHO cells
T2 sequence (Q8WUM9 1-679): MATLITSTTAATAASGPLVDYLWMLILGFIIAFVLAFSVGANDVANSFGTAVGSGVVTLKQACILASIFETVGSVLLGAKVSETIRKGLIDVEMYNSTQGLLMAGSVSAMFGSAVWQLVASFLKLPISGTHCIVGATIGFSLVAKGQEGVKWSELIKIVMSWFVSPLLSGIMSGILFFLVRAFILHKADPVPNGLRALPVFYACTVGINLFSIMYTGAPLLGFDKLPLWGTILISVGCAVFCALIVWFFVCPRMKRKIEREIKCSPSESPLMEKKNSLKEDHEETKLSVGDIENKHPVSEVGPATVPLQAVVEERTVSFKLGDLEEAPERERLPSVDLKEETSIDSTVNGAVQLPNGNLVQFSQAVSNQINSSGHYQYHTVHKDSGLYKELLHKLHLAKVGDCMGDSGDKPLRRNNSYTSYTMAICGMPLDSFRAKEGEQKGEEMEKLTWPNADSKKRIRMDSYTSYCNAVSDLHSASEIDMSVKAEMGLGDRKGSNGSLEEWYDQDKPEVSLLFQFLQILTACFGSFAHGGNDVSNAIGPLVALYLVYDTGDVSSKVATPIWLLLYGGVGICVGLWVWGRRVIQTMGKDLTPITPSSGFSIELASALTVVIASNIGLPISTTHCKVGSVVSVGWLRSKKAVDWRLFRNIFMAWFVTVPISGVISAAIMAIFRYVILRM
The experiment in a line: Inhibitory effect on 33PO4 uptake into human PiT-1-expressing CHO cells. The conditions noted are these: compound 0.24, 1.2, 6 or 30 μM, pH 6.5, read-out: IC50 against 33PO4 uptake into human PiT-1-expressing cells. The method, then: Test Example 3: Inhibitory Effect on ^33PO4 Uptake into Human PiT-1-Expressing Cell
as §1, with “PiT-1” for “PiT-2”, “PiT-1-expressing” for “PiT-2-expressing”

Another assay concerns the target T3, human NaPi-IIb (Homo sapiens, UniProt O95436).
T3 construct: expressed in transfected cells
T3 sequence (O95436 1-690): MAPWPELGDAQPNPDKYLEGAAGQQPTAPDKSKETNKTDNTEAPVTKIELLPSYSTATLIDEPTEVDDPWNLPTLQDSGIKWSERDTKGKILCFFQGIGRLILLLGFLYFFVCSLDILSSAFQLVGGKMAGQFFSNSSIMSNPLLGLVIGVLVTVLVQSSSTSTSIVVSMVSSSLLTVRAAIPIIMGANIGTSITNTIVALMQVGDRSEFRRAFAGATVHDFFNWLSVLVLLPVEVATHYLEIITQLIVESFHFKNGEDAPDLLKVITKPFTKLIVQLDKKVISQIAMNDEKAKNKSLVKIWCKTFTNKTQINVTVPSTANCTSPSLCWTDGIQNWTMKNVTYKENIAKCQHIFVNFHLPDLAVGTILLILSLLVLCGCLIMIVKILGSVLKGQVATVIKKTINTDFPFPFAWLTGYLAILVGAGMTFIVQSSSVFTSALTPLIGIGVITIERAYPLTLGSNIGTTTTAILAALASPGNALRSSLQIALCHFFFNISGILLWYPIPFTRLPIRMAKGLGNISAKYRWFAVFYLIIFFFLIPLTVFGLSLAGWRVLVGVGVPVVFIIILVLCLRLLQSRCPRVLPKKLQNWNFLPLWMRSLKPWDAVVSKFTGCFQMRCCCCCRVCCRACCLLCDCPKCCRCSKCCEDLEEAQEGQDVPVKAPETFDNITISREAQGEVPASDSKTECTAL
The experiment in a line: Inhibitory effect on 33PO4 uptake into human NaPi-IIb-expressing CHO cells. The method in brief:
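Stable human NaPi-IIb CHO line (G418-selected), plated and cultured overnight; ³³PO4 added in buffer A and uptake run at room temperature. Cells washed with ice-cold buffer A, then uptake counted by liquid scintillation.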

pIC50: −log10 of the molar value. Read-outs that look alike come from different tables or passages of the source.

In general, pIC50 refers to the IC50 on a negative log10 scale, so that one unit is a factor of ten. For `C[C@]12CCCN1N(Cc1ccc(OCCN3CCOCC3)c(F)c1F)C(=O)C(C(=O)Nc1ccc(C(F)(F)F)cc1-c1cc(C(F)(F)F)ncn1)=C2O` [Example 157, (4aR)-1-[[2,3-Difluoro-4-(2-morpholin-4-ylethoxy)phenyl]methyl]-4-hydroxy-4a-methyl-2-oxo-N-[4-(trifluoromethyl)-2-[6-(trifluoromethyl)pyrimidin-4-yl]phenyl]-6,7-dihydro-5H-pyrrolo [1,2-b]pyridazine-3-carboxamide], the negative-log IC50 (pIC50) is 5.41 on human PiT-2, 5.42 on human PiT-1 and 4.72 at human NaPi-IIb (read-out: IC50).

Regarding `C[C@]12CCCN1N(Cc1ccc(OCCCCCCOC[C@H](O)CO)c(F)c1F)C(=O)C(C(=O)Nc1cnc(C(F)(F)F)nc1-c1ccc(C(F)(F)F)nc1)=C2O` [Example 156, (4aR)-1-[[4-[6-[(2R)-2,3-Dihydroxypropoxy]hexoxy]-2,3-difluorophenyl]methyl]-4-hydroxy-4a-methyl-2-oxo-N-[2-(trifluoromethyl)-4-[6-(trifluoromethyl)pyridin-3-yl]pyrimidin-5-yl]-6,7-dihydro-5H-pyrrolo[1,2-b]pyridazine-3-carboxamide], the negative logarithm of the IC50 (pIC50) at human PiT-2 was 5.14; at human PiT-1, 5.41; at human NaPi-IIb (read-out: IC50), 5.49.

Take `CN1[C@@H](C(C)(C)C)C(O)=C(C(=O)Nc2ccc(Cl)cc2-c2ccc(C(F)(F)F)nc2)C(=O)N1Cc1ccc(OCCN2CCOCC2)c(F)c1F` [Example 267, (3S)-3-tert-Butyl-N-[4-chloro-2-[6-(trifluoromethyl)pyridin-3-yl]phenyl]-1-[[2,3-difluoro-4-(2-morpholin-4-ylethoxy)phenyl]methyl]-4-hydroxy-2-methyl-6-oxo-3H-pyridazine-5-carboxamide]: the values for the negative logarithm of the IC50 (pIC50) on human PiT-2, on human PiT-1 and at human NaPi-IIb (read-out: IC50) were 5.33, 5.39 and 5.12, respectively.

With `CN(C[C@H](O)[C@@H](O)[C@H](O)[C@H](O)CO)C(=O)CCCOc1ccc(CN2C(=O)C(C(=O)Nc3ccc(C(F)(F)F)cc3-c3cc(C(F)(F)F)ncn3)=C(O)C3(CCCC3)N2C)c(F)c1F` [Example 418, 7-[[2,3-Difluoro-4-[4-[methyl-[(2S,3R,4R,5R)-2,3,4,5,6-penta-hydroxyhexyl]amino]-4-oxobutoxy]phenyl]methyl]-10-hydroxy-6-methyl-8-oxo-N-[4-(trifluoromethyl)-2-[6-(trifluoromethyl)pyrimidin-4-yl]phenyl]-6,7-diazaspiro[4.5]dec-9-ene-9-carboxamide], the pIC50 on human PiT-2 is 5.34; at human PiT-1, 5.39; on human NaPi-IIb (read-out: IC50 against 33PO4 uptake into human NaPi-IIb-expressing cells), 4.96.

For `CSc1ccc(-c2cc(Cl)ccc2NC(=O)C2=C(O)[C@H](C(C)(C)C)N(C)N(Cc3ccc(OCCN4CCOCC4)c(F)c3F)C2=O)cn1` [Example 269, (3S)-3-tert-Butyl-N-[4-chloro-2-(6-methylsulfanyl-pyridin-3-yl)phenyl]-1-[[2,3-difluoro-4-(2-morpholin-4-ylethoxy)phenyl]methyl]-4-hydroxy-2-methyl-6-oxo-3H-pyridazine-5-carboxamide], the figures for the negative logarithm of the IC50 (pIC50) at human PiT-2, at human PiT-1 and on human NaPi-IIb (read-out: IC50) were 4.97, 5.10 and 5.35, respectively.

In the case of `COCCN(C)CCOc1ccc(CN2C(=O)C(C(=O)Nc3ccc(C(F)(F)F)cc3-c3cc(C(F)(F)F)ncn3)=C(O)C3(CCC3)N2C)c(F)c1F` [Example 13, 6-[[2,3-Difluoro-4-[2-[2-methoxyethyl(methyl)amino]ethoxy]phenyl]methyl]-9-hydroxy-5-methyl-7-oxo-N-[4-(trifluoromethyl)-2-[6-(trifluoromethyl)pyrimidin-4-yl]phenyl]-5,6-diazaspiro[3.5]non-8-ene-8-carboxamide], the negative-log IC50 (pIC50) at human PiT-2 was 5.57; at human PiT-1, 5.72; at human NaPi-IIb (read-out: IC50) it was 5.14.

With `CN1[C@@H](C(C)(C)C)C(O)=C(C(=O)Nc2ccc(C(F)(F)F)cc2-c2cc(C(F)(F)F)ncn2)C(=O)N1Cc1ccc(OCCN2CCOCC2)c(F)c1F` [Example 264, (3S)-3-tert-Butyl-1-[[2,3-difluoro-4-(2-morpholin-4-ylethoxy)phenyl]methyl]-4-hydroxy-2-methyl-6-oxo-N-[4-(trifluoromethyl)-2-[6-(trifluoromethyl)pyrimidin-4-yl]phenyl]-3H-pyridazine-5-carboxamide], the negative logarithm of the IC50 (pIC50) on human PiT-2 was 5.42; on human PiT-1 it was 5.34; on human NaPi-IIb (read-out: IC50) it was 4.71.
